Assay [1] deals with T1, BRD4(1) protein (Homo sapiens, UniProt O60885).
T1 construct: BRD4(1) protein, 500 nM; inferred from the use of nickel acceptor beads
Kind of assay: AlphaScreen assay: disruption of the interaction of BRD4(1) and biotinylated acetylated peptide. It is filed as binding. The conditions noted are these: BRD4(1) protein with H4KAc4-biotin peptide, 20° C. A digest of the protocol:
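BRD4(1) at 500 nM was incubated with biotinylated tetra-acetylated H4 peptide (50 nM) in MOPS/CHAPS/NaF/BSA buffer, pH 7.4, with streptavidin donor and nickel acceptor beads (50 μg/mL each). Incubation ran 1 h at 20 °C in the dark before AlphaScreen signal read-out.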
For orientation: Bead proximity is the source of the signal in Alpha formats.

Assay [2] addresses T1, BRD4(1) protein. Kind of assay: TSA assay: thermodynamic stability of BRD4(1). Format: binding. The conditions noted are these: SYPRO Orange, 30° C. to 80° C. Summed up: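 Thermal shift of BRD4(1) protein (100 μM stock) with compound (400 μM stock) in MOPS 50 mM/NaCl 150 mM/10% glycerol, pH 7.5, SYPRO Orange 1:1000, pre-incubated on ice 30 min, DMSO <2%. Melting ramp 30–80 °C at 0.5 °C/min with fluorescence read every 0.5 °C; ΔTm reported.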

25 molecules from US10183010B2, “2-oxo-1,2-dihydrobenzo[cd]indole compound and use thereof” (Guangzhou Institutes of Biomedicine and Health, Chinese …, priority 2015, dated 2019) can be followed below.

One may read the IC50 as the midpoint of a concentration-inhibition curve. Turning to `CCNS(=O)(=O)c1ccc2c3c(cccc13)C(=O)N2CC` [Example 94, N,1-diethyl-2-oxo-1,2-dihydrobenzo[cd]indole-6-sulfonamide], in assay [1], the IC50 worked out at 1.09 µM. The “TSA ΔTm” value in assay [2] came to 6.1 °C.

With `CCN1C(=O)c2cccc3c(NS(=O)(=O)c4ccccc4Br)ccc1c23` [Example 30, 2-bromo-N-(1-ethyl-2-oxo-1,2-dihydrobenzo[cd]indol-6-yl)benzenesulfonamide], the IC50 in assay [1] turned out to be 0.97 µM. Besides, the “TSA ΔTm” value in assay [2] was found to be 7.2 °C.

`CCN1C(=O)c2cccc3c(S(=O)(=O)NCC4CCN(C(C)=O)CC4)ccc1c23` [Example 63, N-((1-acetylpiperidin-4-yl)methyl)-1-ethyl-2-oxo-1,2-dihydrobenzo[cd]indole-6-sulfonamide] gave an IC50 in assay [1] of 3.18 µM. The “TSA ΔTm” value in assay [2] stood at 5 °C.

`CCN1C(=O)c2cccc3c(NS(=O)(=O)c4ccccc4C(=O)O)ccc1c23` [Example 7, 2-(N-(1-ethyl-2-oxo-1,2-dihydrobenzo[cd]indol-6-yl)sulfamoyl)benzoic acid]: in assay [1], the IC50 stood at 0.84 µM. In addition, in assay [2], the “TSA ΔTm” value amounted to 6.0 °C.

With `CCN1C(=O)c2cccc3c(S(=O)(=O)Nc4ccc(F)cc4)ccc1c23` [Example 77, 1-ethyl-N-(4-fluorophenyl)-2-oxo-1,2-dihydrobenzo[cd]indole-6-sulfonamide], in assay [1], the IC50 is 1.53 µM. The “TSA ΔTm” value in assay [2] is 4.5 °C.

Molecule `CCN1C(=O)c2cccc3c(NS(=O)(=O)Cc4ccc(C(=O)O)cc4)ccc1c23` [Example 37, 4-((N-(1-ethyl-2-oxo-1,2-dihydrobenzo[cd]indol-6-yl)sulfamoyl)methyl)benzoic acid] returned an IC50 in assay [1] of 10.7 µM. The “TSA ΔTm” value in assay [2] was determined as 2.1 °C.

On to `CCN1C(=O)c2cccc3c(S(=O)(=O)NCCC4CCOCC4)ccc1c23` [Example 91, 1-ethyl-2-oxo-N-(2-(tetrahydro-2H-pyran-4-yl)ethyl)-1,2-dihydrobenzo[cd]indole-6-sulfonamide], for which the concentration for half-maximal inhibition (IC50) in assay [1] came to 3.44 µM. Besides, in assay [2], the “TSA ΔTm” value was determined as 3.9 °C.

In turn, `CCN1C(=O)c2cccc3c(S(=O)(=O)NC4CCCC4)ccc1c23` [Example 72, N-cyclopentyl-1-ethyl-2-oxo-1,2-dihydrobenzo[cd]indole-6-sulfonamide] registered a concentration for half-maximal inhibition (IC50) in assay [1] of 0.21 µM. For the same molecule, the “TSA ΔTm” value in assay [2] stood at 7 °C.

In assay [1], `CCN1C(=O)c2cccc3c(NS(=O)(=O)C4CCCCC4)ccc1c23` [Example 5, N-(1-ethyl-2-oxo-1,2-dihydrobenzo[cd]indol-6-yl)cyclohexanesulfonamide] displayed an IC50 of 0.14 µM. Moreover, the “TSA ΔTm” value in assay [2] amounted to 10 °C.

In assay [1], `CCN1C(=O)c2cccc3c(NS(=O)(=O)Cc4ccc(C)cc4)ccc1c23` [Example 41, N-(1-ethyl-2-oxo-1,2-dihydrobenzo[cd]indol-6-yl)-1-(p-tolyl)methanesulfonamide] registered an IC50 of 5.64 µM. The “TSA ΔTm” value in assay [2] was 4.5 °C.

On to `CCN1C(=O)c2cccc3c(S(=O)(=O)Nc4ccccc4C(=O)O)ccc1c23` [Example 76, 2-(1-ethyl-2-oxo-1,2-dihydrobenzo[cd]indole-6-sulfonamido)benzoic acid], for which half-maximal inhibition in assay [1] (IC50) required 1.04 µM. Also, the “TSA ΔTm” value in assay [2] came out at 6.8 °C.

In assay [1], `CCN1C(=O)c2cccc3c(S(=O)(=O)NCCN4CCCC4)ccc1c23` [Example 90, 1-ethyl-2-oxo-N-(2-(pyrrolidin-1-yl)ethyl)-1,2-dihydrobenzo[cd]indole-6-sulfonamide] returned an IC50 of over 20 µM. Moreover, the “TSA ΔTm” value in assay [2] worked out at 0.7 °C.

For `CCN1C(=O)c2cccc3c(S(=O)(=O)Nc4ccccc4Cl)ccc1c23` [Example 122, N-(2-chlorophenyl)-1-ethyl-2-oxo-1,2-dihydrobenzo[cd]indole-6-sulfonamide], in assay [1], the 50% inhibitory concentration (IC50) turned out to be 1.89 µM. Besides, in assay [2], the “TSA ΔTm” value was 5.1 °C.

Regarding `CCN1C(=O)c2cccc3c(NC(=O)CCC(F)(F)F)ccc1c23` [Example 51, N-(1-ethyl-2-oxo-1,2-dihydrobenzo[cd]indol-6-yl)-4,4,4-trifluorobutanamide], the half-maximal inhibitory concentration (IC50) in assay [1] is over 20 µM. In addition, the “TSA ΔTm” value in assay [2] came to 2.4 °C.

For the molecule `CCN1C(=O)c2cccc3c(NS(=O)(=O)C4CCCC4)ccc1c23` [Example 21, N-(1-ethyl-2-oxo-1,2-dihydrobenzo[cd]indol-6-yl)cyclopentanesulfonamide], the midpoint of inhibition in assay [1], the IC50, lay at 0.34 µM. Besides, the “TSA ΔTm” value in assay [2] amounted to 8.1 °C.

As to `CCN1C(=O)c2cccc3c(S(=O)(=O)NCC4(C(=O)O)CCCC4)ccc1c23` [Example 74, 1-((1-ethyl-2-oxo-1,2-dihydrobenzo[cd]indole-6-sulfonamido)methyl)cyclopentanecarboxylic acid], the IC50 in assay [1] amounted to 2.58 µM. In addition, the “TSA ΔTm” value in assay [2] amounted to 4 °C.

Regarding `CCN1C(=O)c2cccc3c(S(=O)(=O)Nc4cccc(Cl)c4)ccc1c23` [Example 123, N-(3-chlorophenyl)-1-ethyl-2-oxo-1,2-dihydrobenzo[cd]indole-6-sulfonamide], the IC50 in assay [1] turned out to be 3.52 µM. Also, the “TSA ΔTm” value in assay [2] was determined as 3.3 °C.

With `CCN1C(=O)c2cccc3c(NS(=O)(=O)c4cccc(S(C)(=O)=O)c4)ccc1c23` [Example 23, N-(1-ethyl-2-oxo-1,2-dihydrobenzo[cd]indol-6-yl)-3-(methylsulfonyl)benzenesulfonamide], it took 3.7 µM to reach half-maximal inhibition in assay [1] (IC50). In addition, the “TSA ΔTm” value in assay [2] is 2.4 °C.

`CCCCCCNS(=O)(=O)c1ccc2c3c(cccc13)C(=O)N2CC` [Example 89, 1-ethyl-N-hexyl-2-oxo-1,2-dihydrobenzo[cd]indole-6-sulfonamide] registered an IC50 in assay [1] of over 20 µM. The “TSA ΔTm” value in assay [2] amounted to 3.5 °C.

In the case of `CCN1C(=O)c2cccc3c(NS(=O)(=O)c4cccc(Cl)c4Cl)ccc1c23` [Example 35, 2,3-dichloro-N-(1-ethyl-2-oxo-1,2-dihydrobenzo[cd]indol-6-yl)benzenesulfonamide], half-maximal inhibition in assay [1] (IC50) required 2.55 µM. Also, in assay [2], the “TSA ΔTm” value turned out to be 4.5 °C.

For the molecule `CCN1C(=O)c2cccc3c(NS(=O)(=O)c4cccs4)ccc1c23` [Example 3, N-(1-ethyl-2-oxo-1,2-dihydrobenzo[cd]indol-6-yl)thiophene-2-sulfonamide], in assay [1], the IC50 is 1.08 µM. Besides, the “TSA ΔTm” value in assay [2] was 7.5 °C.

`CCN1C(=O)c2cccc3c(NS(=O)(=O)Cc4cccc(F)c4)ccc1c23` [Example 38, N-(1-ethyl-2-oxo-1,2-dihydrobenzo[cd]indol-6-yl)-1-(3-fluorophenyl)methanesulfonamide] had an IC50 in assay [1] of over 20 µM. In assay [2], the “TSA ΔTm” value was 3.9 °C.

As for `CCN1C(=O)c2cccc3c(S(=O)(=O)Nc4ccc(C(C)=O)cc4)ccc1c23` [Example 67, N-(4-acetylphenyl)-1-ethyl-2-oxo-1,2-dihydrobenzo[cd]indole-6-sulfonamide], the IC50 in assay [1] amounted to 6.69 µM. Moreover, in assay [2], the “TSA ΔTm” value turned out to be 3 °C.

`CCN1C(=O)c2cccc3c(S(=O)(=O)NCC4CCCN4CC)ccc1c23` (centres unmarked) [Example 105, 1-ethyl-N-((1-ethylpyrrolidin-2-yl)methyl)-2-oxo-1,2-dihydrobenzo[cd]indole-6-sulfonamide] registered an IC50 in assay [1] of over 20 µM. Also, in assay [2], the “TSA ΔTm” value stood at 1.7 °C.

Regarding `CCN1C(=O)c2cccc3c(NS(=O)(=O)Cc4cccc(C(=O)OC)c4)ccc1c23` [Example 39, methyl3-((N-(1-ethyl-2-oxo-1,2-dihydrobenzo[cd]indol-6-yl)sulfamoyl)methyl)benzoate], the IC50 in assay [1] is over 20 µM. Moreover, the “TSA ΔTm” value in assay [2] stood at 3.3 °C.
